Molecular target: T1, Alcohol dehydrogenase (Saccharomyces cerevisiae, UniProt P00330)
T1 construct: purchased Wako Pure Chemical Industries, Ltd
T1 sequence (P00330 1-348): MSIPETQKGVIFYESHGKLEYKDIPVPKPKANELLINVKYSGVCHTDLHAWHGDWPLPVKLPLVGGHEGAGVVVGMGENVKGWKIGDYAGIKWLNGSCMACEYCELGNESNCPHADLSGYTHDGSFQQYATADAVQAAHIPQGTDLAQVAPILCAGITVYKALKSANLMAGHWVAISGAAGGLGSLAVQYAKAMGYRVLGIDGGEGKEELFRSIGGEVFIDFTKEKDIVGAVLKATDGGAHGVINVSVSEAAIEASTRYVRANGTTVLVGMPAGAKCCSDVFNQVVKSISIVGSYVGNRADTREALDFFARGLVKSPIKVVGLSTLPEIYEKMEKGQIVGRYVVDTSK
Test: Amount of NADH generated from polyol substrates by alcohol dehydrogenase (Example 3)
Format: biochemical, yeast
Conditions: substrate 100 mmol/L; NAD+ 1.3 mg/mL; enzyme 2.5 μ/mL; 25° C.; relative to alcohol dehydrogenase with ethylene glycol = 100
From the text: (§1) To be more specific, an alcohol dehydrogenase and an aldehyde reductase were allow to act with each substrate and the amount of NADH generated was comparatively investigated.
(§2) Individual relative values are indicated as relative values by assuming the amount of NADH generated from action of the alcohol dehydrogenase with ethylene glycol to be 100.

Amount of reduced coenzyme generated (relative value %), Alcohol dehydrogenase [%] | Structure (SMILES)
0.4 | OC[C@@H](O)[C@H](O)[C@@H](O)CO [Xylitol, xylitol]
0.6 | OCC(O)CO [Glycerol, glycerol]
6.0 | OC[C@@H](O)[C@@H](O)CO [Erythritol, erythritol]

Structure (SMILES) | Amount of reduced coenzyme generated (relative value %), Alcohol dehydrogenase [%]
OCCO [Ethylene glycol, ethylene glycol] | 100
OC[C@@H](O)[C@@H](O)[C@H](O)[C@@H](O)CO [Sorbitol, sorbitol] | 0.7

Test system: Aldehyde reductase
Test: Amount of NADH generated from polyol substrates by aldehyde reductase (Example 3)
Format: biochemical, Candida
Conditions: substrate 100 mmol/L; NAD+ 1.3 mg/mL; enzyme 2.5 μ/mL; 25° C.; relative to alcohol dehydrogenase with ethylene glycol = 100
From the text: as §1, §2

Amount of reduced coenzyme generated (relative value %), Aldehyde reductase [%] | Structure (SMILES)
34 | OC[C@@H](O)[C@H](O)[C@@H](O)CO [Xylitol, xylitol]
7.0 | OCC(O)CO [Glycerol, glycerol]
50 | OC[C@@H](O)[C@@H](O)CO [Erythritol, erythritol]

Structure (SMILES) | Amount of reduced coenzyme generated (relative value %), Aldehyde reductase [%]
OCCO [Ethylene glycol, ethylene glycol] | 4.0
OC[C@@H](O)[C@@H](O)[C@H](O)[C@@H](O)CO [Sorbitol, sorbitol] | 100
